Data set [1] deals with HUVEC cells stimulated with FGF-2. Description: In vitro angiogenesis of HUVEC cells induced with FGF-2 (length of pseudotubules). It counts as cell-based, human. The following applies: concentration at which active on FGF-2-induced angiogenesis of HUVEC cells, evaluated from 0.03 nM to 300 nM; for minimal effective concentration: Homo sapiens, 24 h. As for the experimental part: To do this, matrices composed of matrigel (growth factor reduced matrigel, Becton Dickinson 356230) and of collagen (rat tail collagen type I, Becton Dickinson 354236) are deposited in an amount of 160 μl into each chamberslide well (Biocoat Cellware collagen, Type I, 8-well culturesides: Becton dickinson 354630), or 60 μl per well of 96-plate wells (Biocoat collagenl cellware, Becton Dickinson 354407). The matrix is prepared by mixing ⅓ of matrigel, 1 mg/ml final of collagen, 0.1N NaOH (0.026× the volume of collagen in μl), PBS 1×, and the volume is then adjusted with water. The gels are kept for 1 hour at 37° C. to allow their polymerization. Next, the human venous endothelial cells (HUVEC ref.: C-12200—Promocell) were seeded at 15×10^3 or 6×10^3 cells/well in 400 or 120 μl (for the 8-well or 96-well plates, respectively) of EBM medium (Clonetics C3121)+2% FBS+hEGF 10 μg/ml. They are stimulated with 1 or 3 ng/ml of FGF-2 (R&D system, 133-FB-025; Invitrogen, PHG0026) for 24 hours at 37° C. in the presence of 5% CO2. After 24 hours, the length of the network of microtubules formed is measured by means of the computer-assisted image analysis system (Imagenia Biocom, Courtaboeuf, France) and the total length of the pseudotubules in each well is determined. The mean total length of the microcapillary network is calculated in μm for each condition corresponding to the mean on 6 replicates
Stimulation with FGF-2 allows induction of the formation of new tubules. An FGF-R antagonist is considered as being active in this test if it is capable of partially inhibiting this angiogenesis at a dose of less than or equal to 300 nM.
In this experiment, the molecules are evaluated from 0.03 nM to 300 nM depending on the molecule with regard to induction of the angiogenesis of human HUVEC cells with FGF-2. Compounds 38 (Example 2), 46 (Example 1), 53 (Example 3), 56 (Example 4), 57 (Example 6), 61 (Example 5), 75 (Example 12), 83 (Example 13), 88 (Example 8), 91 (Example 15), 93 (Example 14), 106 (Example 11), 108 (Example 7) and 114 (Example 9) are active since they have inhibitory activity on the formation of pseudotubules of greater than or equal to 20% at a dose of less than or equal to 300 nM (FIG. 1). In the following table, A=active for a concentration<1 nM, B=active at a concentration of 1 nM, C=active at a concentration of 3 nM, D=active at a concentration of 10 nM, E=active at a concentration of 30 nM, and F=active at a concentration of 300 nM.

Data set [2] concerns inflammatory angiogenesis in mice. The data set is described as follows: Model of inflammatory angiogenesis in mice (air pocket granuloma). In kind it is in vivo. The following applies: 30 mg/kg, after one week of treatment. As for the experimental part:
The model described by Colville-N H et al. in 1995 makes it possible to study pharmacological agents that are capable of modulating the appearance of angiogenesis in an inflammatory context. The model is developed on female OF1 mice (Charles River laboratories) weighing about 25 g, and per group of 12. The animals are anaesthetized intraperitoneally with pentobarbital sodium (60 mg/kg; Sanofi Nutrition Santé Animale). An air pocket is created on the mouse's back by injecting 3 ml of air subcutaneously. After waking up, the animals receive a treatment in general by gavage and receive an injection of 0.5 ml of Freud's adjuvant (Sigma) with 0.1% croton oil (Sigma) into the pocket. Seven days later, the mice are again anaesthetized and placed on a hotplate at 40° C. 1 ml of carmine red (Aldrich Chemicals, 5% in 10% of gelatin) is injected into the caudal vein. The animals are then placed at 4° C. for 2-3 hours. The skins are then removed and dried for 24 hours in an oven at 56° C. […] The filtrates are read in a spectrophotometer at 492 nm against a calibration range of carmine red. […] The results are expressed as mean values (±sem). […]
The FGF-R antagonists are evaluated between 1 and 50 mg/kg using methylcellulose/Tween (0.6% v/v) as vehicle or any other vehicle that enables dissolution of the active principle. […]

Experimental findings from US10138235B2, “Pyrazolopyridine derivatives, preparation process therefor and therapeutic use thereof” (SANOFI, priority 2011, dated 2018) are described below.

Compound `COc1cc(-c2cc(C(=O)O)c3cn[nH]c3n2)ccc1N` [Compound 38, 6-(4-Amino-3-methoxyphenyl)-1H-pyrazolo[3,4-b]pyridine-4-carboxylic acid] returned a minimal effective concentration in data set [1] of 0.003 µM.

In data set [1], `NC(=O)c1cc(-c2ccc(F)c(C(=O)O)c2)nc2[nH]nc(-c3ccccc3)c12` [Compound 46, 5-(4-Carbamoyl-3-phenyl-1H-pyrazolo[3,4-b]pyridin-6-yl)-2-fluorobenzoic acid] returned a minimal effective concentration below 0.001 µM. In addition, the “weight of granuloma (dry weight of the skin)” value in data set [2] is listed as “significantly reduces”.

In turn, `O=C(O)c1cc(-c2cc(C(F)F)c3c(-c4ccccc4)n[nH]c3n2)ccc1F` [Compound 53, 5-[4-(Difluoromethyl)-3-phenyl-1H-pyrazolo[3,4-b]pyridin-6-yl)-2-fluorobenzoic acid] yielded a minimal effective concentration in data set [1] below 0.001 µM.

Regarding `O=C(O)c1cc(-c2cc(C(F)(F)F)c3c(-c4ccccc4)n[nH]c3n2)ccc1F` [Compound 56, 2-Fluoro-5-[3-phenyl-4-(trifluoromethyl)-1H-pyrazolo[3,4-b]pyridin-6-yl]benzoic acid], the minimal effective concentration in data set [1] is below 0.001 µM.

In the case of `Cn1nc(-c2ccccc2)c2c(C(F)(F)F)cc(-c3ccc(N)c(C#N)c3)nc21` [Compound 57, 2-Amino-5-[1-methyl-3-phenyl-4-(trifluoromethyl)-1H-pyrazolo[3,4-b]pyridin-6-yl]benzonitrile], the melting point is 269 °C. In addition, the minimal effective concentration in data set [1] is 0.003 µM.

As for `CN(C)c1ccc(-c2cc(C(F)(F)F)c3c(-c4ccccc4)n[nH]c3n2)cc1` [Compound 61, N,N-Dimethyl-4-[3-phenyl-4-(trifluoromethyl)-1H-pyrazolo[3,4-b]pyridin-6-yl]aniline], the melting point was found to be 227 °C. This compound also showed a minimal effective concentration in data set [1] of 0.001 µM.

The compound `Cn1ncc2c(C(F)F)cc(-c3ccc(N)c(C#N)c3)nc21` [Compound 72, 2-Amino-5-[4-(difluoromethyl)-1-methyl-1H-pyrazolo[3,4-b]pyridin-6-yl]benzonitrile] gave a melting point of 251 °C. This compound also returned a minimal effective concentration in data set [1] of 0.01 µM.

`N#Cc1cc(-c2cc(C(F)F)c3cn[nH]c3n2)ccc1N` [Compound 75, 2-Amino-5-[4-(difluoromethyl)-1H-pyrazolo[3,4-b]pyridin-6-yl]benzonitrile]: the melting point stood at 263 °C. Besides, the minimal effective concentration in data set [1] stood at 0.01 µM.

On to `CN(C)CCn1ncc2c(C(F)F)cc(-c3ccc(N)c(C#N)c3)nc21` [Compound 83], for which the Activity entry in data set [1] is recorded as “D (D=active at a concentration of 10 nM)”.

`Cn1ncc2c(C(F)(F)F)cc(-c3ccc(N)c(C#N)c3)nc21` [Compound 88, 2-Amino-5-[1-methyl-4-(trifluoromethyl)-1H-pyrazolo[3,4-b]pyridin-6-yl]benzonitrile] returned a melting point of 276 °C. Moreover, the minimal effective concentration in data set [1] was 0.003 µM.

On to `N#Cc1cc(-c2cc(C(F)F)c3c(-c4cccnc4)n[nH]c3n2)ccc1N` [Compound 91, 2-Amino-5-[4-(difluoromethyl)-3-(pyridin-3-yl)-1H-pyrazolo[3,4-b]pyridin-6-yl]benzonitrile], for which the melting point came out at 296 °C. Moreover, the minimal effective concentration in data set [1] worked out at 0.3 µM.

For `Cn1nc(-c2cccnc2)c2c(C(F)(F)F)cc(-c3cccc(CN4CCOCC4)c3)nc21` [Compound 93], the Activity entry in data set [1] is “F (F=active at a concentration of 300 nM)”.

Compound `Cn1cc2c(C(F)F)cc(-c3ccc(N)c(C#N)c3)nc2n1` [Compound 106, 2-Amino-5-[4-(difluoromethyl)-2-methyl-2H-pyrazolo[3,4-b]pyridin-6-yl]benzonitrile] yielded a minimal effective concentration in data set [1] below 0.001 µM.

On to `Cn1nc2nc(-c3ccc(N)c(C#N)c3)cc(C(F)(F)F)c2c1-c1ccccc1` [Compound 108, 2-Amino-5-[2-methyl-3-phenyl-4-(trifluoromethyl)-2H-pyrazolo[3,4-b]pyridin-6-yl]benzonitrile], for which the melting point stood at 295 °C. In addition, the minimal effective concentration in data set [1] amounted to 0.003 µM.

Regarding `Cn1cc2c(C(F)(F)F)cc(-c3ccc(N)c(C#N)c3)nc2n1` [Compound 114, 2-Amino-5-[2-methyl-4-(trifluoromethyl)-2H-pyrazolo[3,4-b]pyridin-6-yl]benzonitrile], the melting point was determined as 249 °C. Moreover, in data set [1], the minimal effective concentration stood at 0.003 µM.

As usually defined, the minimal effective concentration is the lowest level tested that produced the effect sought. A low value points to an effect from little substance. As usually defined, the melting point is the temperature, or range, at which the solid turns liquid.
